According to article PMC10178769, “A Facile Synthesis and Molecular Characterization of Certain New Anti-Proliferative Indole-Based Chemical Entities” (International Journal of Molecular Sciences, 2023):

Tests used:
[1] = system: MCF-7 breast cancer cells; test: MTT assay, antiproliferative activity, MCF-7; type: cell-based; settings: Homo sapiens, MCF7, 48 h, read-out: Cytotoxicity IC50 MCF7
Description: (§1) The cancer cell growth inhibitory activity of the synthesized compound was tested against three human cancer cell lines, namely, breast cancer (MCF-7), colon cancer (HCT116) and lung cancer (A549), as well as non-tumorigenic human lung cell line (WI38) to estimate the selectivity for tumor cells.
(§2) Anti-proliferative activity in compounds 4a–q were tested in three cancerous cell lines (MCF-7 breast cancer cells, A549 lung carcinoma, HCT human colon cancer cells) and in WI-38 human lung fibroblast cells. Cells were plated at a density of 1.2–1.8 × 10,000 cells/well in a volume of 100 µL complete growth medium and were incubated at 37 °C for 24 h. Cells were then treated with serially diluted tested compound and incubated at 37 °C for 48 h. Twenty microliters of 3-(4,5-dimethylthiazol-2-yl)-2,5-diphenyltetrazolium bromide (MTT) (2.5 mg/mL) dissolved in PBS were added to the cells and cells were further incubated for 4 h at 37 °C. To dissolve formazan crystals, MTT solutions were completely removed and 100 μL DMSO was added. The absorbance was detected at 540 nm using a Spectramax 250 microplate reader (Molecular device, San Jose, CA, USA), and viability (%) was calculated as [optical density (OD) of treated group/OD of control group] × 100.

[2] = system: A549 lung carcinoma cells; test: MTT assay, antiproliferative activity, A549; type: cell-based; settings: Homo sapiens, 48 h, read-out: Cytotoxicity IC50 A549
Description: as §1, §2

[3] = system: HCT116 colon cancer cells; test: MTT assay, antiproliferative activity, HCT116; type: cell-based; settings: Homo sapiens, HCT-116, 48 h, read-out: Cytotoxicity IC50 HCT116
Description: as §1, §2

[4] = MTT assay, toxicity on normal cells WI38; type: cell-based, human; settings: WI-38 lung fibroblast cells (non-tumorigenic); MTT, 48 h, non-tumorigenic human lung cell line; read-out: Cytotoxicity IC50 WI38
Description: as §1, §2

MCF-7 cells [5] = test: Cell cycle analysis, propidium iodide flow cytometry; type: cell-based, human; settings: 10 µm, 48 h, control 34.72%
Description: To evaluate if the antiproliferative effect of 4e was due to the disturbance of the cell cycle, cells were treated with 10 µm for 48 h. […] Therefore, it is possible that the antiproliferative effect of 4e is due to S-phase cell cycle arrest.
To detect cell cycle status after treating cells with 4e, 1 × 10^6 cells were cultured in six-well plates for twenty-four hours per cell and were then treated with 10 μm of 4e for 48 h. Cells were then washed with phosphate-buffered saline. Cells were then fixed with 70% of cold ethanol and kept at 4 °C overnight. Cell analysis was then analyzed following the manifacorere protocol, using a Propidium Iodide Flow Cytometry Kit for Cell Cycle Analysis (Abcam, Waltham, MA, USA).

MCF-7, A549, and HCT = test: MTT assay, cytotoxicity over the three cancer cell lines; type: cell-based; settings: Homo sapiens, average over MCF-7, HCT116, A549, 48 h
Description: as §1, with “The title compounds 4a–q were subjected to MTT assay to determine their cytotoxicity, and their in vitro antiproliferative activity was examined as well. The” for “The”, “cells. Staurosporine was used as a reference drug.” for “cells.”
as §2, with “To dissolve formazan crystals, MTT solutions were completely removed and 100 μL DMSO was added.” left out

MCF-7 cells [6] = test: Annexin V-FITC apoptosis flow cytometry; type: cell-based, human; settings: 10 μm, 48 h
Description: To detect the apoptotic potential of our compound of choice, 4e, an Annexin V-FITC Apoptosis Detection Kit (BioVision, Mountain View, CA, USA) was used based on the manufacturer’s protocol using a dose of 10 μm for 48 h.

[7] = system: WI-38 human lung fibroblast cells; test: MTT assay, toxicity on normal cells WI38; type: cell-based; settings: WI38 versus cancer cells
Description: as §1, §2

For `NN(Cc1ccc(Cl)cc1)C(=O)c1cc2ccccc2[nH]1` [4a, N-(4-Chlorobenzyl)-1H-indole-2-carbohydrazide], the IC50 [1] was 21.7 ± 1.04 µM, the IC50 [2] was 5.9 ± 0.32 µM and the IC50 [3] was 41.3 ± 1.98 µM. For the same compound, the melting point was 233 °C and the IC50 at 48 h [4] was 66.2 ± 3.75 µM.

Work on `COc1ccc2[nH]c(C(=O)N(N)Cc3ccc(Cl)cc3)cc2c1` [4b, N-(4-Chlorobenzyl)-5-methoxy-1H-indole-2-carbohydrazide] yielded an IC50 [1] of 11.5 ± 0.55 µM, an IC50 [2] of 49.2 ± 2.68 µM and an IC50 [3] of 190 ± 9.12 µM. The melting point was 225 °C and the IC50 at 48 h [4] was 163 ± 9.25 µM.

Compound `NN(Cc1ccccc1)C(=O)c1cc2ccccc2[nH]1` [4c, N-Benzyl-1H-indole-2-carbohydrazide] has an IC50 [1] of 62 ± 2.97 µM, an IC50 [2] of 25.3 ± 1.38 µM and an IC50 [3] of 32.5 ± 1.56 µM. The melting point was 237 °C and the IC50 at 48 h [4] was 50.4 ± 2.86 µM.

With `COc1ccc2[nH]c(C(=O)N(N)Cc3ccccc3)cc2c1` [4d, N-Benzyl-5-methoxy-1H-indole-2-carbohydrazide] the IC50 [1] was 3.23 ± 0.16 µM, the IC50 [2] was 5.69 ± 0.31 µM and the IC50 [3] was 66.2 ± 3.17 µM. The melting point was 210 °C and the IC50 at 48 h [4] was 95.2 ± 5.39 µM.

For `NN(Cc1cc(C(F)(F)F)cc(C(F)(F)F)c1)C(=O)c1cc2ccccc2[nH]1` [4e, N-(3,5-Bis(trifluoromethyl)benzyl)-1H-indole-2-carbohydrazide], the “cell population in the S phase” value (MCF-7 cells [5]) was 48.72%, the IC50 [1] was 0.57 ± 0.03 µM and the IC50 (MCF-7, A549, and HCT) was 2000 nM. For the same compound, the IC50 [2] was 3.49 ± 0.19 µM, the IC50 [3] was 1.95 ± 0.09 µM and the “Annexin-V and 7-AAD positive cell populations” value (MCF-7 cells [6]) was “significant increase”. The melting point was 204 °C, the “selectivity against non-tumorigenic cell line (WI38) (in words)” value [7] was “exhibited selectivity toward cancer cells” and the IC50 at 48 h [4] was 87.2 ± 4.94 µM.

For `COc1ccc2[nH]c(C(=O)N(N)Cc3cc(C(F)(F)F)cc(C(F)(F)F)c3)cc2c1` [4f, N-(3,5-Bis(trifluoromethyl)benzyl)-5-methoxy-1H-indole-2-carbohydrazide], the IC50 [1] was 58.1 ± 2.78 µM, the IC50 [2] was 8.33 ± 0.45 µM and the IC50 [3] was 9.79 ± 0.47 µM. The melting point was 195 °C and the IC50 at 48 h [4] was 24.4 ± 1.38 µM.

In the case of `NN(Cc1ccc(F)cc1)C(=O)c1cc2ccccc2[nH]1` [4g, N-(4-Fluorobenzyl)-1H-indole-2-carbohydrazide], the IC50 [1] is reported as 8.31 ± 0.4 µM, the IC50 [2] is reported as 17 ± 0.93 µM and the IC50 [3] is reported as 12.3 ± 0.59 µM. For the same compound, the melting point was 209 °C and the IC50 at 48 h [4] was 117 ± 6.65 µM.

For `COc1ccc2[nH]c(C(=O)N(N)Cc3ccc(F)cc3)cc2c1` [4h, N-(4-Fluorobenzyl)-5-methoxy-1H-indole-2-carbohydrazide], the IC50 [1] was 13.1 ± 0.63 µM, the IC50 [2] was 23.9 ± 1.3 µM and the IC50 [3] was 207 ± 9.94 µM. The melting point was 175 °C and the IC50 at 48 h [4] was 64.1 ± 3.63 µM.

For `NN(Cc1ccc(C(F)(F)F)cc1)C(=O)c1cc2ccccc2[nH]1` [4i, N-(4-(Trifluoromethyl)benzyl)-1H-indole-2-carbohydrazide], the IC50 [1] was 23.9 ± 1.15 µM, the IC50 [2] was 11.6 ± 0.63 µM and the IC50 [3] was 52.2 ± 2.5 µM. The melting point was 190 °C and the IC50 at 48 h [4] was 25.3 ± 1.43 µM.

In the case of `COc1ccc2[nH]c(C(=O)N(N)Cc3ccc(C(F)(F)F)cc3)cc2c1` [4j, N-(4-(Trifluoromethyl)benzyl)-5-methoxy-1H-indole-2-carbohydrazide], the IC50 [1] is reported as 3.27 ± 0.16 µM, the IC50 [2] is reported as 6.78 ± 0.37 µM and the IC50 [3] is reported as 9.16 ± 0.44 µM. It also gave a melting point of 220 °C and an IC50 at 48 h [4] of 97.9 ± 5.54 µM.

With `N#Cc1ccc(CN(N)C(=O)c2cc3ccccc3[nH]2)cc1` [4k, N-(4-Cyanobenzyl)-1H-indole-2-carbohydrazide] the IC50 [1] was 9.21 ± 0.44 µM, the IC50 [2] was 2.65 ± 0.14 µM and the IC50 [3] was 39.1 ± 1.88 µM. For the same compound, the melting point was 202 °C and the IC50 at 48 h [4] was 30.8 ± 1.74 µM.

Work on `COc1ccc2[nH]c(C(=O)N(N)Cc3ccc(C#N)cc3)cc2c1` [4l, N-(4-Cyanobenzyl)-5-methoxy-1H-indole-2-carbohydrazide] yielded an IC50 [1] of 81.4 ± 3.9 µM, an IC50 [2] of 26.6 ± 1.45 µM and an IC50 [3] of 5.02 ± 0.24 µM. The melting point was 248 °C and the IC50 at 48 h [4] was 18.5 ± 1.05 µM.

`NN(Cc1ccc(Br)cc1)C(=O)c1cc2ccccc2[nH]1` [4m, N-(4-Bromobenzyl)-1H-indole-2-carbohydrazide] gave an IC50 [1] of 62.9 ± 3.01 µM, an IC50 [2] of 12.9 ± 0.7 µM and an IC50 [3] of 17.5 ± 0.84 µM. For the same compound, the melting point was 238 °C and the IC50 at 48 h [4] was 46.1 ± 2.61 µM.

`COc1ccc2[nH]c(C(=O)N(N)Cc3ccc(Br)cc3)cc2c1` [4n, N-(4-Bromobenzyl)-5-methoxy-1H-indole-2-carbohydrazide] gave an IC50 [1] of 141 ± 6.74 µM, an IC50 [2] of 16.7 ± 0.91 µM and an IC50 [3] of 61 ± 2.92 µM. It also gave a melting point of 228 °C and an IC50 at 48 h [4] of 252 ± 14.3 µM.

Work on `NN(Cc1ccc([N+](=O)[O-])cc1)C(=O)c1cc2ccccc2[nH]1` [4o, N-(4-Nitrobenzyl)-1H-indole-2-carbohydrazide] yielded an IC50 [1] of 3.66 ± 0.18 µM, an IC50 [2] of 22.3 ± 1.21 µM and an IC50 [3] of 2.41 ± 0.12 µM. For the same compound, the melting point was 223 °C and the IC50 at 48 h [4] was 86 ± 4.87 µM.

`COc1ccc2[nH]c(C(=O)N(N)Cc3ccc([N+](=O)[O-])cc3)cc2c1` [4p, N-(4-Nitrobenzyl)-5-methoxy-1H-indole-2-carbohydrazide] showed an IC50 [1] of 7.01 ± 0.34 µM, an IC50 [2] of 3.02 ± 0.16 µM and an IC50 [3] of 19.4 ± 0.93 µM. For the same compound, the melting point was 213 °C and the IC50 at 48 h [4] was 17.4 ± 0.99 µM.

In the case of `COc1ccc2[nH]c(C(=O)N(N)Cc3ccc(C)cc3)cc2c1` [4q, N-(4-Methylbenzyl)-5-methoxy-1H-indole-2-carbohydrazide], the IC50 [1] is reported as 1.01 ± 0.05 µM, the IC50 (MCF-7, A549, and HCT) is reported as 3280 ± 2300 nM and the IC50 [2] is reported as 2.4 ± 0.13 µM. It also gave an IC50 [3] of 6.45 ± 0.31 µM, a melting point of 166 °C and an IC50 at 48 h [4] of 56.2 ± 3.18 µM.
